Data from publication PMC8745299, “Generation of Lasso Peptide-Based ClpP Binders” (International Journal of Molecular Sciences, 2021).
Values joined by “and” are separate entries in the source; they are usually repeats but may differ in a detail not shown here. Equal entries are not always repeated. Where two headings read alike, the source gives them in different places. Bridge positions count the residues as written; N and C are the ends. Square brackets hold non-standard residues; d marks the D form. Ends that are not written are not given here. Peptide text beside a SMILES is read from it. * marks the point of attachment. Phe(3,5-F2) = N[C@@H](Cc1cc(F)cc(F)c1)C(=O)O; Pro(4R-Me) = C[C@H]1CN[C@H](C(=O)O)C1; Propanoyl(3-cHex) = O=C(CCC1CCCCC1)*; NMeA = CN[C@@H](C)C(=O)O

Legend:
BsClpP tetradecamer = biological target: T1, BsClpP tetradecamer (Bacillus subtilis, UniProt P80244); experiment: Peptidase activity of pre-purified tetradecameric BsClpP; assay type: biochemical, B. subtilis; settings: read-out: EC50, BsClpP14 peptidase activity
T1 construct: His-tag (C); made in house; host or cells: E. coli BL21 (DE3)
Experimental: (§1) Peptide degradation assays were performed in black flat-bottom 96-well plates with a total reaction volume of 100 μL and reaction temperatures of 32 °C and 37 °C for SaClpP and BsClpP, respectively. Stock solutions of ADEP2 and MccJ25 WT or variants were dissolved in DMSO and pre-diluted to 100× of the final concentration. Accordingly, 1 μL of the respective stock solution was placed at the bottom of the wells. […] 50 μL of a 2× enzyme solution (final assay concentration: 1 μM) in activity buffer was added to the plate and incubated for 15 min at 32 °C and 37 °C for SaClpP and BsClpP activity assays, respectively. The enzyme reaction was started by addition of 49 μL of a solution of the fluorogenic model peptide substrate Suc-Leu-Tyr-AMC in activity buffer at a final concentration of 200 μM. For SaClpP assays, the activity buffer was comprised of 100 mM NaCl and 100 mM HEPES at pH 7. […] The fluorescence read-out was measured using a Tecan (Crailsheim, Germany) M200Pro plate reader (excitation/emission: 380/460 nm) every 30–60 s for 1 h. Enzyme velocity was determined by linear regression of the initial segment of the fluorescence-time plot in GraphPad Prism 5 (GraphPad Software, San Diego, CA, USA). […]

BsClpP (monomer) = biological target: T2, BsClpP (monomer) (Bacillus subtilis, UniProt P80244); experiment: Peptidase activity of BsClpP, predominantly monomeric preparation; assay type: biochemical, B. subtilis
T2 construct: His-tag (C); made in house; host or cells: E. coli BL21 (DE3)
Experimental: as §1

SaClpP [1] = biological target: T3, SaClpP (Staphylococcus aureus, UniProt Q2G036); experiment: Peptide (Suc-LY-AMC) degradation by SaClpP in destabilizing Tris buffer pH 8; assay type: biochemical, S. aureus; design: Strep-tag (C); made in house; host or cells: E. coli BL21 (DE3)
T3 sequence (Q2G036 1-195): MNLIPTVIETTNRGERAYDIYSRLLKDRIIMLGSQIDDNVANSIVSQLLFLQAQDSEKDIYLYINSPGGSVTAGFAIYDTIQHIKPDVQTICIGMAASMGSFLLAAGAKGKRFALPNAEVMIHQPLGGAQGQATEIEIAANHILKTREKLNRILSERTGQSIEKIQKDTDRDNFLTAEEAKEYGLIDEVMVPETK
From the text: (§2) In order to assess the different MccJ25 variants, we first chose S. aureus ClpP (SaClpP) as a model peptidase and performed in vitro degradation assays with the fluorogenic model peptide substrate Suc-LY-AMC. […] To investigate whether the MccJ25 variants can exert a stabilizing effect on the oligomeric structure of tetradecameric SaClpP, we conducted peptide degradation assays under destabilizing conditions employing a Tris buffer at pH 8.
This experimental setup was then used to differentiate the MccJ25 variants regarding their effect on ClpP stability. […] The apparent affinity constant was deduced from enzyme activity assays and represents the effector molecule concentration at half maximal stimulation of enzyme activity (the lower the apparent affinity constant, the higher the affinity). To exclude that 12IGF serves as a SaClpP substrate, we incubated a mixture of SaClpP and 12IGF under assay conditions for up to 260 min.
(§3) Peptide degradation assays were performed in black flat-bottom 96-well plates with a total reaction volume of 100 μL and reaction temperatures of 32 °C and 37 °C for SaClpP and BsClpP, respectively. Stock solutions of ADEP2 and MccJ25 WT or variants were dissolved in DMSO and pre-diluted to 100× of the final concentration. Accordingly, 1 μL of the respective stock solution was placed at the bottom of the wells. […] 50 μL of a 2× enzyme solution (final assay concentration: 1 μM) in activity buffer was added to the plate and incubated for 15 min at 32 °C and 37 °C for SaClpP and BsClpP activity assays, respectively. The enzyme reaction was started by addition of 49 μL of a solution of the fluorogenic model peptide substrate Suc-Leu-Tyr-AMC in activity buffer at a final concentration of 200 μM. For SaClpP assays, the activity buffer was comprised of 100 mM NaCl and 100 mM HEPES at pH 7. BsClpP activity buffer (50 mM Tris-HCl, 25 mM MgCl2, 200 mM KCl, 2 mM DTT, pH 8) was used in BsClpP assays as well as in SaClpP experiments, where the buffer composition was supposed to lead to oligomeric breakdown of the SaClpP tetradecamer to allow testing the activity retaining effect of ClpP agonists. The fluorescence read-out was measured using a Tecan (Crailsheim, Germany) M200Pro plate reader (excitation/emission: 380/460 nm) every 30–60 s for 1 h. Enzyme velocity was determined by linear regression of the initial segment of the fluorescence-time plot in GraphPad Prism 5 (GraphPad Software, San Diego, CA, USA). All assays were performed in triplicate and repeated at least two times.

BsClpP = biological target: T4, BsClpP (Bacillus subtilis, UniProt P80244); experiment: BsClpP peptidase activity, preparation not specified; assay type: biochemical, B. subtilis
T4 construct: His-tag (C); made in house; host or cells: E. coli BL21 (DE3)
Experimental: as §3

[2] = test system: ClpPs from different organisms; settings: fully assembled ClpX hexamer; cited from earlier work
From the text: ClpX carries six coupled IGF motifs in a rather favorable orientation.

SaClpP [3] = biological target: T3, SaClpP; experiment: Peptide (Suc-LY-AMC) degradation by SaClpP in HEPES buffer pH 7; assay type: biochemical, S. aureus; design: Strep-tag (C); made in house; host or cells: E. coli BL21 (DE3); settings: Figure 4A
Experimental: as §2
as §1, with “respectively.” for “respectively. The enzyme reaction was started by addition of 49 μL of a solution of the fluorogenic model peptide substrate Suc-Leu-Tyr-AMC in activity buffer at a final concentration of 200 μM. For SaClpP assays, the activity buffer was comprised of 100 mM NaCl and 100 mM HEPES at pH 7.”

SaClpP [4] = biological target: T3, SaClpP; experiment: Analytical gel filtration, SaClpP oligomeric state; design: Strep-tag (C); made in house; host or cells: E. coli BL21 (DE3); settings: Superdex 200, Tris buffer pH 8, representative experiment from three repetitions
SaClpP [5] = biological target: T3, SaClpP; design: Strep-tag (C); made in house; host or cells: E. coli BL21 (DE3); settings: ADEP2 vs natural product ADEP1; ref not given; cited from earlier work
From the text: Figure 3 Grafting of the hydrophobic tripeptide binding motifs onto the MccJ25 lasso peptide scaffold. (A) Schematic of the ClpP tetradecamer and the complete Clp protease complex, i.e., ClpP in concert with ClpX. The interaction between ClpP and the ClpX ATPase occurs between protruding flexible loops of ClpX, carrying the conserved tripeptide motif (L/I/V)-G-(F/L), and the H-pockets of ClpP. The H-pockets are located between two adjacent monomers of ClpP. In the ClpXP complexes of S. aureus and B. subtilis, which we used for our biochemical assays, the respective motif is IGF. (B) The IGF tr ...

SaClpP [6] = biological target: T3, SaClpP; experiment: biochemical; design: Strep-tag (C); made in house; host or cells: E. coli BL21 (DE3)
Experimental: Casein degradation assays were performed analogous to peptide degradation assays. Fluorescein-labelled casein (FITC-casein) was employed at final concentrations of 20 μM in the respective activity buffers (see peptide degradation assay). 1 μL of a 100× stock solution of ADEP2 in DMSO was placed at the bottom of the wells followed by the addition of a 2× SaClpP or BsClpP enzyme solution (1 μM final concentration, unless noted otherwise). The mixture was incubated at 32 °C or 37 °C for 15 min and then the reaction was started by the addition of a 2× FITC-casein solution in the corresponding activity buffer. The fluorescence read-out was measured using a Tecan (Crailsheim, Germany) M200Pro plate reader employing an excitation wavelength of 485 nm and an emission wavelength of 535 nm. Enzyme velocity was acquired by linear regression of the initial segment of the fluorescence graph and plotted against ADEP2 concentration. All assays were performed in duplicate or triplicate.

[7] = cited from earlier work
From the text: MccJ25 is exceptionally stable, even for lasso peptide standards.

thermolysin = settings: cleavage e.g. between Phe10 and Val11; gas phase and solution; cited from earlier work
Enterobacteriaceae = settings: cited from earlier work
From the text: (§4) Microcin J25 (MccJ25) is the most well-studied lasso peptide (Figure 2A). […] MccJ25 enters its target cells through hijacking the TonB-dependent siderophore receptor FhuA [8, 19, 20] which explains its narrow activity spectrum. MccJ25 originates from Escherichia coli AY25 [13] and thus can be produced very well heterolo ...

[8] = test system: Gram-negative RNA polymerase; settings: blocking of NTP uptake channel; cited from earlier work
From the text: as §4

[9] = biological target: B. subtilis ClpP (Bacillus subtilis) (UniProt P80244); experiment: SEC; BsClpP purified under specific buffer conditions that favor tetradecamer assembly; tetradecameric fraction collected from a gel filtration column (buffers in ref. 43)
[10] = biological target: T5, S. aureus ClpP (Staphylococcus aureus), Q2G036; experiment: SEC; analytical gel filtration, Superdex 200 3.2 Increase; SaClpP in Tris buffer pH 8 (50 mM Tris-HCl, 25 mM MgCl2, 200 mM KCl, 2 mM DTT) with 12IGF; settings: remark: other sources report otherwise
T5 chain: T3 sequence (Q2G036 1-195)

[11] = biological target: T5, S. aureus ClpP (Staphylococcus aureus), …; experiment: SEC; gel filtration of apo-SaClpP in HEPES buffer, pH 7 (purification: Superdex 200 HiLoad 16/600, 100 mM NaCl, 20 mM HEPES, pH 7; analytical: Superdex 200 3.2 Increase, 100 mM HEPES, 100 mM NaCl, pH 7); settings: remark: other sources report otherwise
[12] = biological target: T5, S. aureus ClpP (Staphylococcus aureus), …; experiment: SEC; analytical gel filtration, Superdex 200 3.2 Increase; SaClpP in Tris buffer pH 8 (50 mM Tris-HCl, 25 mM MgCl2, 200 mM KCl, 2 mM DTT) with ADEP2; settings: remark: other sources report otherwise
[13] = biological target: T5, S. aureus ClpP (Staphylococcus aureus), …; experiment: SEC; analytical gel filtration, Superdex 200 3.2 Increase; SaClpP diluted 10x in BsClpP activity buffer (50 mM Tris-HCl, 25 mM MgCl2, 200 mM KCl, 2 mM DTT, pH 8), no effector; settings: remark: other sources report otherwise

T4 sequence (P80244 whole entry): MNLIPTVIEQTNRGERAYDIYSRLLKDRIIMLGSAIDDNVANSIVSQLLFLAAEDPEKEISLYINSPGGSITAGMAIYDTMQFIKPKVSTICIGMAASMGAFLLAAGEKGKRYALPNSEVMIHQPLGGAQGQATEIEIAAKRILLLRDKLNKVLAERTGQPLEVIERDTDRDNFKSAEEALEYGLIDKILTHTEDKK
T2 sequence (P80244 whole entry): as above
T1 sequence (P80244 whole entry): as above

CC[C@H](C)[C@H](NC(=O)[C@@H](NC(=O)[C@H](Cc1ccccc1)NC(=O)[C@H](Cc1ccc(O)cc1)NC(=O)[C@@H]1CCC(=O)NCC(=O)NCC(=O)N[C@@H](C)C(=O)NCC(=O)N[C@@H](Cc2c[nH]cn2)C(=O)N[C@@H](C(C)C)C(=O)N2CCC[C@H]2C(=O)N1)C(C)C)C(=O)NCC(=O)N[C@@H](Cc1ccccc1)C(=O)N[C@H](C(=O)N1CCC[C@H]1C(=O)N[C@H](C(=O)N[C@@H](CO)C(=O)N[C@@H](Cc1ccccc1)C(=O)N[C@@H](Cc1ccc(O)cc1)C(=O)NCC(=O)O)[C@@H](C)CC)[C@@H](C)O [12IGF] (GGAGHVPEYFVIGFTPISFYG-OH; lactam N-8)
EC50 (BsClpP tetradecamer): 60.3 ± 12.1 µM | EC50 (BsClpP (monomer); 5 μM ADEP2, Tris pH 8, 37 °C, ± S.D., two separate experiments, read-out: EC50, BsClpP1 peptidase activity (+ADEP2)): 60.2 ± 3.78 µM | EC50 (BsClpP (monomer); with ADEP2 (Figure 5C), Tris pH 8, 37 °C, read-out: apparent affinity constant, BsClpP activation in the presence of ADEP2): 60 µM | EC50 (SaClpP [1]; Tris buffer pH 8, 1 μM SaClpP, 200 μM Suc-Leu-Tyr-AMC, 32 °C, 15 min pre-incubation, fluorescence 380/460 nm, ± S.D., three independent experiments, read-out: EC50, stabilizing effect on SaClpP peptidase activity): 26 ± 3.32 µM | EC50 (SaClpP [1]; Tris buffer pH 8, effector concentration at half maximal stimulation of enzyme activity, 32 °C, Suc-Leu-Tyr-AMC, read-out: apparent affinity constant, stabilizing effect on SaClpP peptidase activity): ~26 µM and 26 µM | EC50 relative to ADEP (BsClpP; 12IGF EC50 in SaClpP and BsClpP peptidase assays vs EC50 values measured for ADEP): exceeded the EC50 values measured for ADEP by one to two orders of magnitude | EC50 (BsClpP; Figure 5C,D, with or without ADEP2 not specified, 37 °C): 60 µM

ClpX: Clp-ATPase ClpX hexamer carrying six coupled IGF motifs
ClpP affinity relative to ADEP2 [2]: weaker affinities than ADEP2

C[C@@H]1C[C@H]2C(=O)OC[C@H](NC(=O)[C@H](Cc3cc(F)cc(F)c3)NC(=O)CCC3CCCCC3)C(=O)N3CCC[C@H]3C(=O)N(C)[C@@H](C)C(=O)N[C@@H](C)C(=O)N2C1 [ADEP2] ({Propanoyl(3-cHex)}-[Phe(3,5-F2)]SP[NMeA]A[Pro(4R-Me)]; ester 2-C)
SaClpP peptidase activity enhancement (SaClpP [3]): enhanced weakly | SaClpP tetradecamer integrity (SaClpP [4]): Inactivation by oligomeric breakdown in Tris buffer at pH 8 can be circumvented by the addition of ADEP2 | affinity for SaClpP (SaClpP [5]): increased affinity for SaClpP | SaClpP peptidase activity retained in the presence of ADEP2 (SaClpP [1]; Tris buffer pH 8, Figure 4A): a substantial extent of the original activity (observed in the favorable HEPES buffer at pH 7) was retained in the presence of ADEP2 | EC50 (SaClpP [6]): 0.304 ± 0.179 µM

microcin J25 (GGAGHVPEYFVGIGTPISFYG; lactam N-8; also: lasso topology, tail threaded through ring) [WT MccJ25, wild type lasso peptide from Escherichia coli AY25]
thermal stability [7]: withstand autoclaving at 120 °C | stability of [2]rotaxane after loop hydrolysis by thermolysin (thermolysin): does not cause ring and tail to dissociate | SaClpP peptidase activity retained in Tris buffer (SaClpP [1]; Tris buffer pH 8, 46 μM lasso peptide (Figure 4C), 32 °C, three independent experiments): only the three variants carrying the canonical tripeptide motif at positions 12–14 were able to retain SaClpP activity in Tris buffer | effect on SaClpP activity (SaClpP [1]; summary in discussion): neither WT MccJ25 nor several of the other mutated variants constructed in this study affected either of the ClpPs | effect on BsClpP activity (BsClpP; summary in discussion): neither WT MccJ25 nor several of the other mutated variants constructed in this study affected either of the ClpPs | antibiotic activity (Enterobacteriaceae): exhibits antibiotic activity against Enterobacteriaceae | RNA polymerase inhibition [8]: inhibition of the Gram-negative RNA polymerase

B. subtilis ClpP (from UniProt P80244 1-197) (enzyme)
stoichiometry N [9]: 14

B1: S. aureus ClpP, Q2G036 1-195 (enzyme)
chain: T3 sequence (Q2G036 1-195)
stoichiometry N [10]: 14 | stoichiometry N [11]: 14 | stoichiometry N [12]: 14 | stoichiometry N [13]: 7
